Test results taken from PubChem BioAssay AID256 (DTP/NCI, 2004).
“And” between values parts separate entries of the source, which are not always exact repeats. Equal entries are not always repeated. Inconclusive results and toxic doses are left out. How the source made its calls: active means survival T/C of 150% or more; inactive means T/C below 125% in these data.

System: CD2F1 mice, L1210 leukemia ip, survival T/C
Assay: NCI In Vivo Anticancer Drug Screen. Data for tumor model L1210 Leukemia (intraperitoneal) in CD2F1 (CDF1) mice
Details: higher = longer survival
Procedure, shortened: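 Read-out first: treated-group measurement over vehicle-control measurement, expressed as a ratio. Animals bore a transplanted tumor line and were dosed with compound or vehicle.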

[1] = endpoint: mean survival time, dose: 100.0 mg/kg/injection, schedule: Q04DX003 (ip), vehicle: saline with Tween-80
[2] = endpoint: mean survival time, dose: 200.0 mg/kg/injection, schedule: Q04DX003 (ip), vehicle: saline with Tween-80
[3] = endpoint: mean survival time, dose: 400.0 mg/kg/injection, schedule: Q04DX003 (ip), vehicle: saline with Tween-80
[4] = endpoint: mean survival time, dose: 100.0 mg/kg/injection, schedule: Q01DX001 (ip), vehicle: saline
[5] = endpoint: mean survival time, dose: 200.0 mg/kg/injection, schedule: Q01DX001 (ip), vehicle: saline
[6] = endpoint: mean survival time, dose: 400.0 mg/kg/injection, schedule: Q01DX001 (ip), vehicle: saline

Measured: T/C

CC1=CC(S)NC(=S)N1 (centres undefined)
inactive: endpoint: mean survival time, dose: 100.0 mg/kg/injection, schedule: Q04DX002 (ip), vehicle: saline with Tween-80 103 % of control | endpoint: mean survival time, dose: 200.0 mg/kg/injection, schedule: Q04DX002 (ip), vehicle: saline with Tween-80 95 % of control | endpoint: mean survival time, dose: 400.0 mg/kg/injection, schedule: Q04DX002 (ip), vehicle: saline with Tween-80 106 % of control

C1CC2OC2CCC2OC12 (centres undefined)
inactive: endpoint: mean survival time, dose: 100.0 mg/kg/injection, schedule: Q01DX009 (ip), vehicle: saline sonified 103 % of control | [1] 100 % of control | endpoint: mean survival time, dose: 200.0 mg/kg/injection, schedule: Q01DX009 (ip), vehicle: saline sonified 104 % of control | [2] 97 % of control | endpoint: mean survival time, dose: 400.0 mg/kg/injection, schedule: Q01DX009 (ip), vehicle: saline sonified 104 % of control | [3] 103 % of control

OC(CC1(O)C(F)(F)C(F)(F)C1(F)F)c1ccccc1 (centres undefined)
inactive: [1] 96 % of control | [2] 92 % of control | [3] 90 % of control

Nc1nc(N)c2c(n1)NCN(CCc1ccc(Cl)cc1)C2
inactive: endpoint: mean survival time, dose: 0.75 mg/kg/injection, schedule: Q01DX009 (ip), vehicle: distilled water + Tween-80 100 % of control | endpoint: mean survival time, dose: 1.5 mg/kg/injection, schedule: Q01DX009 (ip), vehicle: distilled water + Tween-80 102 % of control | endpoint: mean survival time, dose: 3.0 mg/kg/injection, schedule: Q01DX009 (ip), vehicle: distilled water + Tween-80 102 % of control | endpoint: mean survival time, dose: 6.0 mg/kg/injection, schedule: Q01DX009 (ip), vehicle: distilled water + Tween-80 100 % of control | endpoint: mean survival time, dose: 12.0 mg/kg/injection, schedule: Q01DX009 (ip), vehicle: distilled water + Tween-80 100 % of control | endpoint: mean survival time, dose: 24.0 mg/kg/injection, schedule: Q01DX009 (ip), vehicle: distilled water + Tween-80 98 % of control

CCOC(=O)CSc1ccc(F)cc1
inactive: [4] 90 % of control | [5] 100 % of control | [6] 91 % of control

OCC1OC(n2cnc3cc(Cl)c(Cl)cc32)C(O)C1O (centres undefined)
inactive: endpoint: median survival time, dose: 25.0 mg/kg/injection, schedule: Q01DX009 (ip), vehicle: saline with Tween-80 97 % of control and 103 % of control | endpoint: median survival time, dose: 50.0 mg/kg/injection, schedule: Q01DX009 (ip), vehicle: saline with Tween-80 106 % of control | endpoint: median survival time, dose: 100.0 mg/kg/injection, schedule: Q01DX009 (ip), vehicle: saline with Tween-80 120 % of control and 110 % of control and 112 % of control | endpoint: median survival time, dose: 200.0 mg/kg/injection, schedule: Q01DX009 (ip), vehicle: saline with Tween-80 120 % of control

CC(C)[CH2][Sn]([CH2]C(C)C)([CH2]C(C)C)[O]C(=O)C1(C)CCCC2(C)C3CCC(C(C)C)=CC3=CCC12 (centres undefined)
inactive: endpoint: mean survival time, dose: 3.12 mg/kg/injection, schedule: Q01DX009 (ip), vehicle: saline with Tween-80 97 % of control | endpoint: mean survival time, dose: 6.25 mg/kg/injection, schedule: Q01DX009 (ip), vehicle: saline with Tween-80 90 % of control | endpoint: mean survival time, dose: 12.5 mg/kg/injection, schedule: Q01DX009 (ip), vehicle: saline with Tween-80 93 % of control

COC(=O)C1CCC[N+](C)(C)C1 (centres undefined)
inactive: endpoint: mean survival time, dose: 25.0 mg/kg/injection, schedule: Q01DX009 (ip), vehicle: saline 100 % of control | endpoint: mean survival time, dose: 50.0 mg/kg/injection, schedule: Q01DX009 (ip), vehicle: saline 93 % of control

N#CC(/C=C/c1ccccc1)Nc1ccccc1 (centres undefined)
inactive: endpoint: mean survival time, dose: 100.0 mg/kg/injection, schedule: Q01DX009 (ip), vehicle: saline with Tween-80 89 % of control | endpoint: mean survival time, dose: 100.0 mg/kg/injection, schedule: Q04DX003 (ip), vehicle: saline sonified 100 % of control | endpoint: mean survival time, dose: 200.0 mg/kg/injection, schedule: Q01DX009 (ip), vehicle: saline with Tween-80 90 % of control | endpoint: mean survival time, dose: 200.0 mg/kg/injection, schedule: Q04DX003 (ip), vehicle: saline sonified 97 % of control | endpoint: mean survival time, dose: 400.0 mg/kg/injection, schedule: Q01DX009 (ip), vehicle: saline with Tween-80 89 % of control | endpoint: mean survival time, dose: 400.0 mg/kg/injection, schedule: Q04DX003 (ip), vehicle: saline sonified 96 % of control

c1cc(CSc2ncnc3nc[nH]c23)ccn1
inactive: endpoint: mean survival time, dose: 178.0 mg/kg/injection, schedule: Q01DX001 (ip), vehicle: saline 118 % of control | endpoint: mean survival time, dose: 267.0 mg/kg/injection, schedule: Q01DX001 (ip), vehicle: saline 115 % of control | [6] 119 % of control

O=C(O)c1ccccc1CCl
inactive: [1] 103 % of control | [2] 108 % of control | [3] 108 % of control

Nc1ncnc2c1ncn2C1OC(CO)C2NP(=O)(N(CCCl)CCCl)OC21 (centres undefined)
inactive: endpoint: mean survival time, dose: 15.6 mg/kg/injection, schedule: Q01DX001 (ip), vehicle: distilled water + Tween-80 98 % of control and 101 % of control | endpoint: mean survival time, dose: 31.3 mg/kg/injection, schedule: Q01DX001 (ip), vehicle: distilled water + Tween-80 101 % of control | endpoint: mean survival time, dose: 62.5 mg/kg/injection, schedule: Q01DX001 (ip), vehicle: distilled water + Tween-80 101 % of control

COc1ccc(CCNC2CCCCC2O)cc1OC (centres undefined)
inactive: endpoint: mean survival time, dose: 75.0 mg/kg/injection, schedule: Q01DX001 (ip), vehicle: saline 106 % of control | endpoint: mean survival time, dose: 150.0 mg/kg/injection, schedule: Q01DX001 (ip), vehicle: saline 98 % of control | endpoint: mean survival time, dose: 300.0 mg/kg/injection, schedule: Q01DX001 (ip), vehicle: saline 104 % of control

CCOC(=O)/C=C/c1cccc([N+](=O)[O-])c1
inactive: endpoint: mean survival time, dose: 100.0 mg/kg/injection, schedule: Q01DX001 (ip), vehicle: saline with Tween-80 101 % of control | endpoint: mean survival time, dose: 200.0 mg/kg/injection, schedule: Q01DX001 (ip), vehicle: saline with Tween-80 101 % of control | endpoint: mean survival time, dose: 400.0 mg/kg/injection, schedule: Q01DX001 (ip), vehicle: saline with Tween-80 108 % of control

O=C1C=CC(=O)N1c1ccccc1[N+](=O)[O-]
inactive: endpoint: mean survival time, dose: 3.0 mg/kg/injection, schedule: Q01DX009 (ip), vehicle: saline with Tween-80 96 % of control | endpoint: mean survival time, dose: 6.0 mg/kg/injection, schedule: Q01DX009 (ip), vehicle: saline with Tween-80 100 % of control | endpoint: mean survival time, dose: 6.25 mg/kg/injection, schedule: Q04DX003 (ip), vehicle: saline with Tween-80 100 % of control | endpoint: mean survival time, dose: 12.0 mg/kg/injection, schedule: Q01DX009 (ip), vehicle: saline with Tween-80 97 % of control | endpoint: mean survival time, dose: 12.5 mg/kg/injection, schedule: Q04DX003 (ip), vehicle: saline with Tween-80 97 % of control

CC(=O)N(c1nc(Cl)c2cc[nH]c2n1)C1OC(CO)C(O)C1O (centres undefined)
inactive: endpoint: mean survival time, dose: 12.5 mg/kg/injection, schedule: Q01DX005 (ip), vehicle: water 100 % of control | endpoint: mean survival time, dose: 25.0 mg/kg/injection, schedule: Q01DX005 (ip), vehicle: water 100 % of control | endpoint: mean survival time, dose: 50.0 mg/kg/injection, schedule: Q01DX005 (ip), vehicle: water 101 % of control | endpoint: mean survival time, dose: 100.0 mg/kg/injection, schedule: Q01DX005 (ip), vehicle: water 101 % of control | endpoint: mean survival time, dose: 200.0 mg/kg/injection, schedule: Q01DX005 (ip), vehicle: water 103 % of control

CC(CC(=O)c1ccccc1)=Nc1ccccc1.CC(CC(=O)c1ccccc1)=Nc1ccccc1.[O]=[V]
inactive: endpoint: mean survival time, dose: 50.0 mg/kg/injection, schedule: Q01DX001 (ip), vehicle: Klucel (hydroxypropylcellulose) (HPC) 96 % of control | endpoint: mean survival time, dose: 100.0 mg/kg/injection, schedule: Q01DX001 (ip), vehicle: Klucel (hydroxypropylcellulose) (HPC) 88 % of control | endpoint: mean survival time, dose: 200.0 mg/kg/injection, schedule: Q01DX001 (ip), vehicle: Klucel (hydroxypropylcellulose) (HPC) 94 % of control | endpoint: mean survival time, dose: 400.0 mg/kg/injection, schedule: Q01DX001 (ip), vehicle: Klucel (hydroxypropylcellulose) (HPC) 93 % of control | endpoint: mean survival time, dose: 800.0 mg/kg/injection, schedule: Q01DX001 (ip), vehicle: Klucel (hydroxypropylcellulose) (HPC) 90 % of control

NC(=O)c1ccccc1C(=O)O
inactive: [4] 105 % of control | [5] 102 % of control | [6] 94 % of control
